In ChEMBL document CHEMBL1128089, “A carbene-generating biotinylated lactosylceramide analog as novel photoreactive substrate for GM3 synthase” (Bioorg Med Chem Lett, 1995):
Where “and” joins values, the source holds several entries; their conditions need not be identical. Equal entries are not always repeated.

Assays:
Rattus norvegicus [1] = species: Rattus norvegicus; experiment: Evaluation of competition between CDH and compound using [3H]NANA as ligand in sialyltransferase assay at a concentration of 0.90 mM
Rattus norvegicus [2] = species: Rattus norvegicus; experiment: Evaluation of inhibition of CDH sialylation by the compound at a concentration of 0 mM; assay type: functional
Rattus norvegicus [3] = species: Rattus norvegicus; experiment: Evaluation of competition between CDH and compound using [3H]NANA as ligand in sialyltransferase assay at a concentration of 0.18 mM
[4] = Km from Lineweaver-Burke plot; assay type: ADME
Rattus norvegicus [5] = species: Rattus norvegicus; experiment: Evaluation of inhibition of CDH sialylation by the compound at a concentration of 0.9 mM; assay type: functional

- Binding (Rattus norvegicus [1]): 8610 dpm
- Binding (Rattus norvegicus [3]): 3850 dpm and 9480 dpm
- Km [4]: 180 µM
Compound: O=C(CCCC[C@@H]1SC[C@@H]2NC(=O)N[C@@H]21)NCCCC[C@H](NC(=O)c1ccc(C2(C(F)(F)F)N=N2)cc1)C(=O)NCCO[C@@H]1O[C@@H](CO)[C@@H](O[C@@H]2O[C@@H](CO)[C@H](O)[C@H](O)[C@@H]2O)[C@H](O)[C@@H]1O
- Inhibition (Rattus norvegicus [2]): 0%
- Inhibition (Rattus norvegicus [5]): 64%
